The values below come from article PMC5981863 (ACS infectious diseases, 2017).

For one assay, the system named is A. baumannii M9. Kind of assay: MIC, agar dilution and liquid microdilution. It is filed as cell-based. For orientation: In agar dilution, organisms are placed on agar that contains the substance at set levels.
For assay [1], the system named is E. coli DH10B pBCSK, blaADC-7. Kind of assay: MIC, agar dilution and liquid microdilution. It counts as cell-based, Escherichia coli.
Assay [2] has as its system E. coli DH10B pBCSK, blaADC-7, N213A. Nature of the assay: MIC, agar dilution and liquid microdilution. It is filed as cell-based, Escherichia coli.
For a further assay, the system named is E. coli DH10B. Nature of the assay: MIC, agar dilution and liquid microdilution. It is filed as cell-based, Escherichia coli.
Assay [3] concerns E. coli DH10B pBCSK, blaADC-7, R340A. Kind of assay: MIC, agar dilution and liquid microdilution. It is filed as cell-based, Escherichia coli.
The subject of assay [4] is E. coli DH10B pBCSK, blaADC-7, R340K. Nature of the assay: MIC, agar dilution and liquid microdilution. It is filed as cell-based, Escherichia coli.
In another assay the test system is ADC-7. Kind of assay: Thermal denaturation by circular dichroism. It counts as binding, Acinetobacter baumannii. As to conditions: ADC-7 alone Tm ≈61 °C.
In another assay the target is ADC-7/R340A mutant. Nature of the assay: Competition kinetics with nitrocefin. It counts as biochemical, Acinetobacter baumannii.
The mark [5] stands for this setting: MIC of CAZ in combination with 4 μg/mL BATSI compound.

Values after ≈ are worked out from the molar mass of the structure shown.

As to `CC(C)(O/N=C(\C(=O)N[C@@H]1C(=O)N2C(C(=O)[O-])=C(C[n+]3ccccc3)CS[C@H]12)c1csc(N)n1)C(=O)O` [CAZ, ceftazidime, reference compound], the minimum inhibitory concentration (MIC) in the assay with A. baumannii M9 (Acinetobacter baumannii, M9) is more than 64 µg/mL; against A. baumannii M9 (CAZ alone), more than 64 µg/mL; in assay [1] (Escherichia coli) it was 64 µg/mL (≈ 117 µM); in assay [2] (Escherichia coli), 32 µg/mL (≈ 58.5 µM); in the assay on E. coli DH10B (Escherichia coli, DH10B), 1 µg/mL (≈ 1.83 µM); in assay [3] (Escherichia coli), 32 µg/mL (≈ 58.5 µM). The compound further displayed an MIC in assay [4] (Escherichia coli) of 32 µg/mL (≈ 58.5 µM).

Take `O=S(=O)(NCB(O)O)c1ccc(-c2nn[nH]n2)cc1` [CR157]: the MIC in the assay with A. baumannii M9 (setting [5]) turned out to be 8 µg/mL; in assay [1] (setting [5]), 1 µg/mL; in assay [2] (setting [5]), 2 µg/mL; in the assay on E. coli DH10B (setting [5]), 0.5 µg/mL; in assay [3] (setting [5]) it was 0.5 µg/mL; in assay [4] (setting [5]), 1 µg/mL.

For `O=S(=O)(NCB(O)O)c1ccc(-c2nn[nH]n2)nc1` [CR161], the MIC in assay [1] (setting [5]) came out at 0.5 µg/mL; in assay [2] (setting [5]), 2 µg/mL; in the assay on E. coli DH10B (setting [5]), 0.5 µg/mL; in assay [3] (setting [5]), 1 µg/mL; in assay [4] (setting [5]) it was 1 µg/mL.

As to `O=C(O)c1cccc(CS(=O)(=O)NCB(O)O)c1` [CR167], the MIC in the assay with A. baumannii M9 (setting [5]) stood at 16 µg/mL; in assay [1] (setting [5]), 1 µg/mL; in assay [2] (setting [5]) it was 4 µg/mL; in the assay with E. coli DH10B (setting [5]), 0.5 µg/mL; in assay [3] (setting [5]), 2 µg/mL; in assay [4] (setting [5]) it was 4 µg/mL.

For `O=S(=O)(NCB(O)O)c1ccc(-c2nn[nH]n2)cc1C(F)(F)F` [CR192], the MIC in the assay with A. baumannii M9 (setting [5]) is 8 µg/mL; in assay [1] (setting [5]), 2 µg/mL; in assay [2] (setting [5]), 1 µg/mL; in the assay with E. coli DH10B (setting [5]), 0.5 µg/mL; in assay [3] (setting [5]), 0.5 µg/mL; in assay [4] (setting [5]), 2 µg/mL. The “Tm of ADC-7/compound complex” value in the assay on ADC-7 is approximately 70 °C. In addition, on ADC-7/R340A mutant, the Ki turned out to be 8.3 nM.

In the case of `O=C(Cc1cccs1)NCB(O)O` [achiral cephalothin, reference compound], the MIC in the assay with A. baumannii M9 (setting [5]) was found to be 32 µg/mL; in assay [1] (setting [5]) it was 32 µg/mL; in assay [2] (setting [5]), 32 µg/mL; in the assay with E. coli DH10B (setting [5]) it was 0.5 µg/mL; in assay [3] (setting [5]), 32 µg/mL; in assay [4] (setting [5]) it was 32 µg/mL.

Broadly, the MIC is the lowest concentration found to suppress growth. The term Ki denotes a dissociation constant, usually derived from enzyme kinetics or from competition with a known ligand. Low values mean a stronger hold on the target, high ones a looser hold on the target.
